Columns and labels:
Assay type in all cases: cell-based
E. coli = assay: Bacteriostatic screening (growth, OD630) against E. coli; conditions: for inhibition rate EC (symbol /): at 250 μM of tested compound
Procedure: (§1) The strategy in this study was to submit these synthesized compounds to a preliminary screening test against E. coli, S. aureus and E. faecalis (ciprofloxacin was used as a reference compound; see Table 1). […] The tested compound or ciprofloxacin (positive drug) was dissolved in DMSO and diluted with LB liquid medium into a stock solution containing 20% DMSO before use; the stock solution of the carrier was 20% DMSO in LB liquid medium. All the experiments, including blank controls, were performed in triplicate. Bacteriostatic screening was performed by applying a modified protocol of the National Committee on Clinical Laboratory Standards (NCCLS).[29] Briefly, E. coli, S. aureus and E. faecalis cells (American Type Culture Collection, ATCC) were grown in LB plate medium for one passage, then seeded in LB liquid medium and cultured at 37 °C for 12 h. After being diluted 1000 times, 190 μL diluted cells were aliquoted to 96-well plates; then, 10 μL stock solution of carrier or a gradient amount of the tested compound or the positive compound, ciprofloxacin, were added; the final concentration of DMSO was 1% in all wells. The blank controls contained 1% DMSO and LB medium but no bacterial cells.

S. aureus = assay: Bacteriostatic screening (growth, OD630) against S. aureus; conditions: for inhibition rate SA (symbol /): at 250 μM of tested compound
Procedure: as §1

E. faecalis = assay: Bacteriostatic screening (growth, OD630) against E. faecalis; conditions: for IC50: 24 h, IC50 generated when inhibition at 250 μM was higher than 80%
Procedure: as §1

[1] = at 250 μM of the tested compound
[2] = at 250 μM of the tested compound, 250 µM

| Compound | IC50 (E. faecalis) [µM] | inhibition rate (%) SA (S. aureus; [2]) | inhibition rate EC (symbol /) (E. coli) | inhibition rate SA (symbol /) (S. aureus) | inhibition rate (%) EF (E. faecalis; [1]) | further results |
| --- | --- | --- | --- | --- | --- | --- |
| C=C1CCC2C(C)(CO)C(O)CCC2(C)C1CC=C1C(=O)OCC1Oc1ccc(C(=O)OCC)cc1 (stereo not drawn) [6b9, (14β)-(4′-Carboxyethyl ester)phenoxy-andrographolide] | 53.3 ± 4.1 |  |  |  |  | inhibition rate (%) EC (E. coli; [1]): (17) %; inhibition rate (%) SA (S. aureus; [1]): (40) % |
| C=C1CCC2C(C)(CO)C(O)CCC2(C)C1CC=C1C(=O)OCC1Oc1ccc([N+](=O)[O-])cc1F (stereo not drawn) [6b2, (14β)-(2′-Fluoro-4′-nitro)phenoxy-andrographolide] | 24.4 ± 3.2 | (25) % |  |  |  | inhibition rate (%) EC (E. coli; [2]): (42) % |
| (14β)-(Quinolyl-4′-oxy)-3,19-acetonylidene andrographolide [5b16] | 15.5 ± 4.2 |  | / (“/”represents no inhibition or lower than 10% inhibition rate at 250 μM of tested compound) | / (“/”represents no inhibition or lower than 10% inhibition rate at 250 μM of tested compound) |  |  |
| C=C1CCC2C3(C)COC(C)(C)OC3CCC2(C)C1CC=C1C(=O)OCC1Oc1ccc(C(=O)OCC)cc1 (stereo not drawn) [5a9, (14α)-(4′-Carboxyethyl ester)phenoxy-3,19-acetonylidene andrographolide] |  |  | / (“/”represents no inhibition or lower than 10% inhibition rate at 250 μM of tested compound) |  | (45) % | inhibition rate (%) SA (S. aureus; [1]): (10) % |
| C=C1CCC2C3(C)COC(C)(C)OC3CCC2(C)C1CC=C1C(=O)OCC1Oc1ccc([N+](=O)[O-])c(F)c1 (stereo not drawn) [5a4, (14α)-(3′-Fluoro-4′-nitro)phenoxy-3,19-acetonylidene andrographolide] |  |  | / (“/”represents no inhibition or lower than 10% inhibition rate at 250 μM of tested compound) | / (“/”represents no inhibition or lower than 10% inhibition rate at 250 μM of tested compound) | (46) % |  |
| C=C1CCC2C(C)(CO)C(O)CCC2(C)C1CC=C1C(=O)OCC1Oc1ccnc2ccccc12 (stereo not drawn) [6b16, (14β)-(Quinolyl-4′-oxy)andrographolide] | 58.5 ± 4.2 |  | / (“/”represents no inhibition or lower than 10% inhibition rate at 250 μM of tested compound) | / (“/”represents no inhibition or lower than 10% inhibition rate at 250 μM of tested compound) |  |  |
| C=C1CCC2C3(C)COC(C)(C)OC3CCC2(C)C1CC=C1C(=O)OCC1Oc1cccc(OC)c1 (stereo not drawn) [5b13, (14β)-(3′-Methoxy)phenoxy-3,19-acetonylidene andrographolide] |  |  | / (“/”represents no inhibition or lower than 10% inhibition rate at 250 μM of tested compound) | / (“/”represents no inhibition or lower than 10% inhibition rate at 250 μM of tested compound) | (17) % |  |
| C=C1CCC2C3(C)COC(C)(C)OC3CCC2(C)C1CC=C1C(=O)OCC1Oc1ccc([N+](=O)[O-])cc1OC (stereo not drawn) [5b3, (14β)-(2′-Methoxy-4′-nitro)phenoxy-3,19-acetonylidene andrographolide] |  | (16) % | / (“/”represents no inhibition or lower than 10% inhibition rate at 250 μM of tested compound) |  |  | inhibition rate (%) EF (E. faecalis; [2]): (19) % |
| C=C1CCC2C3(C)COC(C)(C)OC3CCC2(C)C1CC=C1C(=O)OCC1Oc1cccnc1[N+](=O)[O-] (stereo not drawn) [5a15, (14α)-(2′-Nitro-pyridinyl-3′-oxy)-3,19-acetonylidene andrographolide] | 25.5 ± 1.5 | (11) % |  |  |  | inhibition rate (%) EC (E. coli; [1]): (13) % |
| C=C1CCC2C3(C)COC(C)(C)OC3CCC2(C)C1CC=C1C(=O)OCC1Oc1cccc2ccccc12 (stereo not drawn) [5b14, (14β)-(Naphthyl-1′-oxy)-3,19-acetonylidene andrographolide] |  |  | / (“/”represents no inhibition or lower than 10% inhibition rate at 250 μM of tested compound) | / (“/”represents no inhibition or lower than 10% inhibition rate at 250 μM of tested compound) | (47) % |  |
| (14β)-(3′-Fluoro-4′-nitro)phenoxy-3,19-acetonylidene andrographolide [5b4] |  |  |  |  | (73) % | inhibition rate (%) EC (E. coli; [1]): (19) %; inhibition rate (%) SA (S. aureus; [1]): (15) % |
| C=C1CCC2C(C)(CO)C(O)CCC2(C)C1CC=C1C(=O)OCC1Oc1cccc2ccccc12 (stereo not drawn) [6b14, (14β)-(Naphthyl-1′-oxy)andrographolide] |  |  |  |  | (50) % | inhibition rate (%) EC (E. coli; [1]): (35) %; inhibition rate (%) SA (S. aureus; [1]): (18) % |
| (14α)-(2′-Carboxy ethyl ester-4′-nitro)phenoxy-andrographolide [6a1] | 72.2 ± 9.2 |  | / (“/”represents no inhibition or lower than 10% inhibition rate at 250 μM of tested compound) |  |  | inhibition rate (%) SA (S. aureus; [1]): (10) % |
| C=C1CCC2C(C)(CO)C(O)CCC2(C)C1CC=C1C(=O)OCC1Oc1ccc([N+](=O)[O-])cc1F (stereo not drawn) [6a2, (14α)-(2′-Fluoro-4′-nitro)phenoxy-andrographolide] | 38.7 ± 4.5 | (65) % |  |  |  | inhibition rate (%) EC (E. coli; [2]): (67) % |
| (14β)-(2′-Nitro)phenoxy-3,19-acetonylidene andrographolide [5b6] |  |  | / (“/”represents no inhibition or lower than 10% inhibition rate at 250 μM of tested compound) | / (“/”represents no inhibition or lower than 10% inhibition rate at 250 μM of tested compound) | 43% |  |
| C=C1CCC2C3(C)COC(C)(C)OC3CCC2(C)C1CC=C1C(=O)OCC1Oc1ccc([N+](=O)[O-])c(OC)c1 (stereo not drawn) [5a5, (14α)-(3′-Methoxy-4′-nitro)phenoxy-3,19-acetonylidene andrographolide] |  | (10) % |  |  |  | inhibition rate (%) EC (E. coli; [2]): (12) %; inhibition rate (%) EF (E. faecalis; [2]): (73) % |
| C=C1CCC2C(C)(CO)C(O)CCC2(C)C1CC=C1C(=O)OCC1Oc1ccc(C(=O)OCC)cc1 (stereo not drawn) [6a9, (14α)-(4′-Carboxyethyl ester)phenoxy-andrographolide] | 38.3 ± 5.9 |  | / (“/”represents no inhibition or lower than 10% inhibition rate at 250 μM of tested compound) | / (“/”represents no inhibition or lower than 10% inhibition rate at 250 μM of tested compound) |  |  |
| C=C1CCC2C3(C)COC(C)(C)OC3CCC2(C)C1CC=C1C(=O)OCC1Oc1ccnc2ccccc12 (stereo not drawn) [5a16, (14α)-(Quinolyl-4′-oxy)-3,19-acetonylidene andrographolide] | 16.9 ± 5.9 |  | / (“/”represents no inhibition or lower than 10% inhibition rate at 250 μM of tested compound) |  |  | inhibition rate (%) SA (S. aureus; [1]): (14) % |
| C=C1CCC2C(C)(CO)C(O)CCC2(C)C1CC=C1C(=O)OCC1Oc1cccc([N+](=O)[O-])c1 (stereo not drawn) [6b7, (14β)-(3′-Nitro)phenoxy-andrographolide] | 17.8 ± 4.2 |  | / (“/”represents no inhibition or lower than 10% inhibition rate at 250 μM of tested compound) |  |  | inhibition rate (%) SA (S. aureus; [1]): 26% |
| C=C1CCC2C(C)(CO)C(O)CCC2(C)C1CC=C1C(=O)OCC1Oc1ccc([N+](=O)[O-])c(F)c1 (stereo not drawn) [6a4, (14α)-(3′-Fluoro-4′-nitro)phenoxy-andrographolide] |  |  | / (“/”represents no inhibition or lower than 10% inhibition rate at 250 μM of tested compound) | / (“/”represents no inhibition or lower than 10% inhibition rate at 250 μM of tested compound) | (44) % |  |
| C=C1CCC2C3(C)COC(C)(C)OC3CCC2(C)C1CC=C1C(=O)OCC1Oc1ccc([N+](=O)[O-])cc1OC (stereo not drawn) [5a3, (14α)-(2′-Methoxy-4′-nitro)phenoxy-3,19-acetonylidene andrographolide] |  | (18) % |  |  |  | inhibition rate (%) EC (E. coli; [1]): (21) %; inhibition rate (%) EF (E. faecalis; [2]): (60) % |
| C=C1CCC2C(C)(CO)C(O)CCC2(C)C1CC=C1C(=O)OCC1Oc1ccccc1C(=O)OCC (stereo not drawn) [6b8, (14β)-(2′-Carboxyethyl ester)phenoxy-andrographolide] | 89.7 ± 12 |  |  | / (“/”represents no inhibition or lower than 10% inhibition rate at 250 μM of tested compound) |  | inhibition rate (%) EC (E. coli; [1]): (21) % |
| C=C1CCC2C3(C)COC(C)(C)OC3CCC2(C)C1CC=C1C(=O)OCC1Oc1ccc([N+](=O)[O-])cc1C(=O)OC (stereo not drawn) [5b1, (14β)-(2′-Carboxymethyl ester-4′-nitro)phenoxy-3,19-acetonylidene andrographolide] |  | (20) % |  |  | (56) % | inhibition rate (%) EC (E. coli; [1]): (22) % |
| C=C1CC[C@H]2[C@@](C)(CCC(=O)[C@@]2(C)CO[Si](C)(C)C(C)(C)C)[C@@H]1C/C=C1/C(=O)OC[C@@H]1Oc1cccc2cccnc12 [8b2, (14β)-(quinolyl-8′-oxy)-3-keto-19-(t-butyldimethylsilyloxy)andrographolide] |  |  |  |  |  | inhibition at 250 µM (E. coli; Escherichia coli, at 250 μM of the tested compound, read-out: inhibition rate (%) EC): 25%; inhibition at 250 µM (S. aureus; Staphylococcus aureus, at 250 μM of the tested compound, read-out: inhibition rate (%) SA): 28%; inhibition at 250 µM (E. faecalis; Enterococcus faecalis, at 250 μM of the tested compound, read-out: inhibition rate (%) EF): 71% |
| C=C1CCC2C(C)(CO)C(O)CCC2(C)C1CC=C1C(=O)OCC1Oc1ccccc1OC (stereo not drawn) [6a12, (14α)-(2′-Methoxy)phenoxy-andrographolide] | 75.6 ± 17.8 | (14) % | / (“/”represents no inhibition or lower than 10% inhibition rate at 250 μM of tested compound) |  |  |  |
